Patent EP1832576A1, “4-Biarylyl-1-phenolyzetidin-2-ones” (Microbia Inc., priority 2003, dated 2005)

System: cholesterol absorption from the intestine
Assay: In Vivo Assay of Hypolipidemic Agents using the Rat Cholesterol Absorption Model
Parameters: species or system Female Sprague-Dawley rats
Conditions: po, 3H levels in serum three hours after 3H-cholesterol; for inhibition at 1 mg/kg: versus vehicle only control; for inhibition at 10 mg/kg: Table 1, footnote 1, perorally
Protocol: In Vivo Assay of Hypolipidemic Agents using the Rat Cholesterol Absorption Model. This model is based on models described by Burnett et al (2002), Bioorg. Med. Chem. Lett. 2002 Feb 11;12(3):315-8 and J. Lipid Res. 1999 Oct;40(10):1747-57. Female Sprague-Dawley rats weighing 150-250g are separated into […] and fasted overnight. The animals (4-6/group) are dosed perorally with 300µL test compounds in olive oil or suitable vehicle. Thirty minutes later, 3-5 microCuries ^3H-cholesterol per rat are delivered perorally in 300 µL olive oil. After three hours, 200 µL serum is collected, vortexed with scintillation fluid, and measured for radioactivity in a scintillation counter. Percent inhibition is defined as 100*(1-Ctest/Cctrl), where Ctest and Cctrl refer to ^3H levels in serum for the test compound and for the vehicle only control, respectively. Percent inhibition values are reported for a fixed dose. The ED50 is the dose at which the half-maximal effect on serum ^3H levels is observed for a given test compound.
Representative compounds of the invention were tested in the Rat Cholesterol Absorption model above.

Structure (SMILES) | inhibition at 1 mg/kg (Table 1, perorally) | other results
O=C1[C@H](CC[C@H](O)c2ccc(F)cc2)[C@@H](c2ccc(-c3ccc(O)cc3)cc2)N1c1ccc(F)cc1 [Example 2, (3R,4S)-1-(4-fluorophenyl)-3-[(3S)-3-(4-fluorophenyl)-3-hydroxypropyl]-4-(4'-hydroxybiphenyl-4-yl)azetidin-2-one] | 54% | –
O=C1[C@H](CC[C@H](O)c2ccc(F)cc2)[C@@H](c2ccc(-c3ccccc3)cc2)N1c1ccc(F)cc1 [Example 3, (3R,4S)-4-Biphenyl-4-yl-1-(4-fluorophenyl)-3-[(3S)-3-(4-fluorophenyl)-3-hydroxypropyl]azetidin-2-one] | – | inhibition at 10 mg/kg: 15%
O=C1[C@H](CC[C@H](O)c2ccc(F)cc2)[C@@H](c2ccc(-c3cccc(O)c3)cc2)N1c1ccc(F)cc1 [Example 4, (3R,4S)-1-(4-Fluorophenyl)-3-[(3S)-3-(4-fluorophenyl)-3-hydroxypropyl]-4-(3'-hydroxybiphenyl-4-yl)azetidin-2-one] | 72% | –
COc1ccc(-c2ccc([C@@H]3[C@@H](CC[C@H](O)c4ccc(F)cc4)C(=O)N3c3ccc(F)cc3)cc2)cc1 [Example 5, (3R,4S)-1-(4-fluorophenyl)-3-[(3S)-3-(4-fluorophenyl)-3-hydroxypropyl]-4-(4'-methoxybiphenyl-4-yl)azetidin-2-one] | – | inhibition at 10 mg/kg: 26%
O=C1[C@H](CC[C@H](O)c2ccc(F)cc2)[C@@H](c2ccc(-c3ccccc3O)cc2)N1c1ccc(F)cc1 [Example 7, (3R,4S)-1-(4-fluorophenyl)-3-[(3S)-3-(4-fluorophenyl)-3-hydroxypropyl]-4-(2'-hydroxybiphenyl-4-yl)azetidin-2-one] | 30% | –
CS(=O)(=O)c1ccc(-c2ccc([C@@H]3[C@@H](CC[C@H](O)c4ccc(F)cc4)C(=O)N3c3ccc(F)cc3)cc2)cc1 [Example 8, (3R,4S)-1-(4-fluorophenyl)-3-[(3S)-3-(4-fluorophenyl)-3-hydroxypropyl]-4-[4'-(methylsulfonyl)biphenyl-4-yl]azetidin-2-one] | 53% | –
COc1cc(-c2ccc([C@@H]3[C@@H](CC[C@H](O)c4ccc(F)cc4)C(=O)N3c3ccc(F)cc3)cc2)cc(OC)c1OC [Example 9, (3R,4S)-1-(4-fluorophenyl)-3-[(3S)-3-(4-fluorophenyl)-3-hydroxypropyl]-4-(3',4',5'-trimethoxybiphenyl-4-yl)azetidin-2-one] | 40% | –
CS(=O)(=O)c1cccc(-c2ccc([C@@H]3[C@@H](CC[C@H](O)c4ccc(F)cc4)C(=O)N3c3ccc(F)cc3)cc2)c1 [Example 10, (3R,4S)-1-(4-fluorophenyl)-3-[(3S)-3-(4-fluorophenyl)-3-hydroxypropyl]-4-[3'-(methylsulfonyl)biphenyl-4-yl]azetidin-2-one] | – | inhibition at 3 mg/kg (Table 1, footnote 2, perorally, 3 mg/kg): 54%
COc1cccc(-c2ccc([C@@H]3[C@@H](CC[C@H](O)c4ccc(F)cc4)C(=O)N3c3ccc(F)cc3)cc2)c1OC [Example 11, (3R,4S)-4-(2',3'-dimethoxybiphenyl-4-yl)-1-(4-fluorophenyl)-3-[(3S)-3-(4-fluorophenyl)-3-hydroxypropyl]azetidin-2-one] | 28% | –
COc1cccc(-c2ccc([C@@H]3[C@@H](CC[C@H](O)c4ccc(F)cc4)C(=O)N3c3ccc(F)cc3)cc2)c1 [Example 12, (3R,4S)-1-(4-fluorophenyl)-3-[(3S)-3-(4-fluorophenyl)-3-hydroxypropyl]-4-(3'-methoxybiphenyl-4-yl)azetidin-2-one] | 70% | –
O=Cc1cccc(-c2ccc([C@@H]3[C@@H](CC[C@H](O)c4ccc(F)cc4)C(=O)N3c3ccc(F)cc3)cc2)c1 [Example 13, 4'-{(2S,3R)-1-(4-fluorophenyl)-3-[(3S)-3-(4-fluorophenyl)-3-hydroxypropyl]-4-oxoazetidin-2-yl}biphenyl-3-carbaldehyde] | 70% | –
N#Cc1cccc(-c2ccc([C@@H]3[C@@H](CC[C@H](O)c4ccc(F)cc4)C(=O)N3c3ccc(F)cc3)cc2)c1 [Example 14, 4'-{(2S,3R)-1-(4-fluorophenyl)-3-[(3S)-3-(4-fluorophenyl)-3-hydroxypropyl]-4-oxoazetidin-2-yl}biphenyl-3-carbonitrile] | – | inhibition at 5 mg/kg (Table 1, footnote 3, perorally, 5 mg/kg): 32%
CN(C)S(=O)(=O)c1ccc(-c2ccc([C@@H]3[C@@H](CC[C@H](O)c4ccc(F)cc4)C(=O)N3c3ccc(F)cc3)cc2)cc1 [Example 15, 4'-{(2S,3R)-1-(4-fluorophenyl)-3-[(3S)-3-(4-fluorophenyl)-3-hydroxypropyl]-4-oxoazetidin-2-yl}-biphenyl-N,N-dimethylbiphenyl-4-sulfonamide] | 8% | –
O=C1[C@H](CC[C@H](O)c2ccc(F)cc2)[C@@H](c2ccc(-c3cccc(CO)c3)cc2)N1c1ccc(F)cc1 [Example 16, (3R,4S)-1-(4-Fluorophenyl)-3-[(3S)-3-(4-fluorophenyl)-3-hydroxypropyl]-4-(3'-(hydroxymethyl)biphenyl-4-yl)azetidin-2-one] | 72% | –
CN(C)c1ccc(-c2ccc([C@@H]3[C@@H](CC[C@H](O)c4ccc(F)cc4)C(=O)N3c3ccc(F)cc3)cc2)cc1 [Example 17, (3R,4S)-4-[4'(dimethylamino)biphenyl-4-yl]-1-(4-fluorophenyl)-3-[(3S)-3-(4-fluorophenyl)-3-hydroxypropyl]azetidin-2-one] | 43% | –
O=C1C(CCC(O)c2ccc(F)cc2)C(c2ccc(-c3ccc(CO)cc3)cc2)N1c1ccc(F)cc1 (stereo not drawn) [Example 18] | 48% | –
O=C1[C@H](CC[C@H](O)c2ccc(F)cc2)[C@@H](c2ccc(-c3cc(O)ccc3Br)cc2)N1c1ccc(F)cc1 [Example 19, (3R,4S)-4-(2'-bromo-5'-hydroxybiphenyl-4-yl)-1-(4-fluorophenyl)-3-[(3S)-3-(4-fluorophenyl)-3-hydroxypropyl]azetidin-2-one] | 66% | –
O=C(O)[C@@H]1O[C@H](Oc2cccc(-c3ccc([C@@H]4[C@@H](CC[C@H](O)c5ccc(F)cc5)C(=O)N4c4ccc(F)cc4)cc3)c2)[C@@H](O)[C@H](O)[C@H]1O [Example 20, 4'-{(2S,3R)-1-(4-fluorophenyl)-3-[(3S)-3-(4-fluorophenyl)-3-hydroxypropyl]-4-oxoazetidin-2-yl}biphenyl-3-yl β-L-glucopyranosiduronic acid] | 59% | –
O=C(O)c1cccc(-c2ccc([C@@H]3[C@@H](CC[C@H](O)c4ccc(F)cc4)C(=O)N3c3ccc(F)cc3)cc2)c1 [Example 21, 4'-{(2S,3R)-1-(4-fluorophenyl)3-[(3S)-3-(4-fluorophenyl)-3-hydroxypropyl]-4-oxoazetidin-2-yl]biphenyl-3-carboxylic acid] | 68% | –
O=C(O)c1ccc(-c2ccc([C@@H]3[C@@H](CC[C@H](O)c4ccc(F)cc4)C(=O)N3c3ccc(F)cc3)cc2)cc1 [Example 22, 4'-{(2S,3R)-1-(4-fluorophenyl)3-[(3S)-3-(4-fluorophenyl)-3-hydroxypropyl]-4-oxoazetidin-2-yl]biphenyl-4-carboxylic acid] | 52% | –
O=C1[C@H](CC[C@H](O)c2ccc(F)cc2)[C@@H](c2ccc(-c3cccc([N+](=O)[O-])c3)cc2)N1c1ccc(F)cc1 [Example 23, (3R,4S)-1-(4-fluorophenyl)-3-[(3S)-3-(4-fluorophenyl)-3-hydroxypropyl]-4-(3'-nitrobiphenyl-4-yl)azetidin-2-one] | – | inhibition at 10 mg/kg: 54%
CC(=O)Nc1cccc(-c2ccc([C@@H]3[C@@H](CC[C@H](O)c4ccc(F)cc4)C(=O)N3c3ccc(F)cc3)cc2)c1 [Example 26, N-(4'-{(2S,3R)-1-(4-fluorophenyl)-3-[(3S)-3-(4-fluorophenyl)-3-hydroxypropyl]-4-oxoazetidin-2-yl}biphenyl-3-yl)acetamide] | – | inhibition at 10 mg/kg: 76%
Nc1ccc(-c2ccc([C@@H]3[C@@H](CC[C@H](O)c4ccc(F)cc4)C(=O)N3c3ccc(F)cc3)cc2)cc1 [Example 28, (3R,4S)-1-(4-fluorophenyl)-3-[(3S)-3-(4-fluorophenyl)-3-hydroxypropyl]-4-(4'-aminobiphenyl-4-yl)azetidin-2-one] | 56% | –
O=C1[C@H](CC[C@H](O)c2ccc(F)cc2)[C@@H](c2ccc(-c3cccc(O)c3)cc2O)N1c1ccccc1 [Example 42, (3R,4S)-4-(3,3'-Dihydroxybiphenyl-4-yl)-3-[(3S)-3-(4-fluorophenyl)-3-hydroxypropyl]-1-phenylazetidin-2-one] | – | inhibition at 1 mg/kg (Table 2, perorally): 87%
O=C1[C@H](CC[C@H](O)c2ccc(F)cc2)[C@@H](c2cccc(-c3cccc(O)c3)c2)N1c1ccc(F)cc1 [Example 44, (3R,4S)-1-(4-fluorophenyl)-3-[(3S)-3-(4-fluorophenyl)-3-hydroxypropyl]-4-(3'-hydroxybiphenyl-3-yl)azetidin-2-one] | – | inhibition at 1 mg/kg (Table 2, perorally): 24%
O=C1C(CCC(O)c2ccc(F)cc2)C(c2cccc(-c3ccc(O)cc3)c2)N1c1ccc(F)cc1 (stereo not drawn) [Example 46] | – | inhibition at 1 mg/kg (Table 2, perorally): 30%
O=C1[C@H](CC[C@H](O)c2ccc(F)cc2)[C@@H](c2ccc(-c3cccc(O)c3)cn2)N1c1ccccc1 [Example 49, (3R,4S)-3-[(3S)-3-(4-fluorophenyl)-3-hydroxypropyl]-4-[5-(3-hydroxyphenyl)pyridin-2-yl]-1-phenylazetidin-2-one] | – | inhibition at 1 mg/kg (Table 2, perorally): 30%
